Reference: patent publication US7345091B2, “Carotenoid ether analogs or derivatives for the inhibition and amelioration of disease” (Cardax Pharmaceuticals, Inc., priority 2002, dated 2008)
Entries after “also recorded” stand apart in the source; their conditions may differ. Where a name gives a salt, the structure may show the parent alone.

Tests used:
Cx43 protein = Cx43 protein expression by stereoisomer forms (immuno-(Western) blotting, 4 days); format: cell-based, mouse; details: 1×10^-5 M in 1:2 ethanol/H2O
Description: (2) Molecular Studies. […] Briefly, mouse embryonic fibroblast C3H10T1/2 cells were cultured in Eagle's basal medium with Earle's salts (Atlanta Biologicals, Atlanta, Ga.), supplemented with 5% fetal calf serum (Atlanta Biologicals, Atlanta, Ga.) and 25 μg/mL gentamicin sulfate (Sigma, St. Louis, Mo.), and incubated at 37° C. in 5% CO2. On the 7th day after seeding in 100 millimeter (mm) dishes, the confluent cells were treated for four days with the disodium salt disuccinate astaxanthin derivatives XVI and then harvested and analyzed for Cx43 protein induction as described. Protein content was measured using the Protein Assay Reagent kit (Pierce Chemical Co., Rockford, Ill.) according to manufacturer's instructions. Cell lysates containing 100 μg of protein were analyzed by Western blotting using the NuPage western blotting kit and apparatus (Invitrogen, Carlsbad, Calif.) and Cx43 protein detected using a rabbit polyclonal antibody (Zymed, San Francisco, Calif.) raised against a synthetic polypeptide corresponding to the C-terminal domain of mouse, human and rat Cx43. Cx43 immunoreactive bands were visualized by chemiluminescence using an anti-rabbit HRP-conjugated secondary antibody (Pierce Chemical Co., Rockford, Ill.). Digital images were obtained with a cooled CCD camera, and quantitative densitometry was then performed (Bio-Rad, Richmond, Calif.).

male Sprague-Dawley rats = experiment: Infarct size reduction after coronary artery occlusion/reperfusion; format: in vivo, rat; details: for relationship of infarct size reduction / myocardial salvage to dose: 25, 50, 75 mg/kg I.V.
Description: FIG. 4, FIG. 25, and FIG. 26 depict graphical representations of the reduction of infarct size in male Sprague-Dawley rats. Male Sprague-Dawley rats were pre-treated with the disodium salt disuccinate astaxanthin derivative XVI (as the mixture of stereoisomers) in aqueous solution before performing an occlusion and inducing a myocardial infarction. Male Sprague-Dawley rats (175-200 grams) were anaesthetized with 100 mg/kg of Inactin, instrumented, and the heart exposed. […] The hearts were washed in buffer and incubated in triphenyltetrazolium chloride (TTC) staining solution kept at 37° C. in phosphate buffer at pH of 7.40. Infarct size (IS) was expressed as a % of the area at risk (IS/AAR, %). Systemic blood pressure, heart rate, blood gases and body temperature were monitored throughout the experiment, and temperature and blood gases were tightly controlled at normal physiological levels. 25, 50, or 75 mg/kg of the disodium salt disuccinate astaxanthin derivative XVI or sterile saline vehicle was administered I.V. by tail vein injection every day for 4 days prior to the infarct experiment on day 5 and subsequent infarct size determination.

C-reactive protein (CRP) = experiment: Circulating C-reactive protein levels (ELISA) in croton oil-stimulated infarct model; format: in vivo, rabbit; details: 50 mg/kg IV for 4 days; 1% croton oil; sample at time of reperfusion; controls +23.5%
Description: The influence of parenteral administration of the disodium disuccinate astaxanthin derivative (XVI) on induced infarct size and induced levels of circulating C-reactive protein (CRP) in rabbits was investigated using the methods of Barrett et al. (2002) with slight modifications. The purpose of the current study was to investigate the ability of the disodium disuccinate astaxanthin derivative (XVI) to reduce inflammation as measured by CRP in the setting of experimental myocardial ischemia-reperfusion injury in the rabbit heart. […] Therefore, reduction of circulating CRP levels, together with the reduction(s) in infarct size previously noted with Cardax™ in rodents, would form a powerful anti-inflammatory therapeutic modality in the acute coronary syndrome setting.
In brief, male New Zealand white rabbits (2.25-2.5 kg) were used for the study. The acute phase inflammatory response was induced by subcutaneous injection of four aliquots (0.5 mL each) of 1% croton oil in corn oil beginning on the second day of pre-treatment with Cardax™. Either Cardax™ (at 50 mg/kg IV by ear vein injection) in water or equal volumes of sterile saline were given once per day for 4 days prior to experimental infarction on day 5. The time course of increases in circulating CRP levels were obtained as described previously (Barret et al. 2002), using an ELISA-based method with anti-rabbit CRP antibodies. […]

male ICR mice = experiment: LPS/galactosamine-induced liver injury (plasma ALT); format: in vivo, mouse; details: for LPS-induced ALT elevation: 500 mg/kg oral gavage in emulsion 2 hours before LPS/D-galactosamine IP, 5 hours
Description: Three-month old male ICR mice were treated with LPS and galactosamine in order to induce liver injury (Leist, 1995). Mice were first orally gavaged with either an olive oil/water/lecithin emulsion (10 mL/kg, or 0.3 mL for a 30 gram mouse), or the same emulsion containing the disodium disuccinate astaxanthin derivative XVI (50 mg/mL) for a final disodium disuccinate astaxanthin dose of 500 mg/kg. Two hours later mice were injected intraperitoneally (IP) with either saline (10 mL/kg) or a solution of E. coli LPS (3 mg/kg, Sigma catalog number L-3755) and D-galactosamine (700 mg/kg). Animals were sacrificed by carbon dioxide (CO2) asphyxiation 5 hours after the IP injection, and plasma was then collected for ALT determination.

## CC1=C(/C=C/C(C)=C/C=C/C(C)=C/C=C/C=C(C)/C=C/C=C(C)/C=C/C2=C(C)C(=O)C(OC(=O)CCC(=O)O)CC2(C)C)C(C)(C)CC(OC(=O)CCC(=O)O)C1=O (racemic) [XVI, Disodium Salt of the Disuccinic Acid Ester of Astaxanthin]
Cx43 protein
  rank of Cx43 induction level among derivatives: highest induction level of Cx43 of all derivatives tested
Cx43 protein; four days, vs 1:2 ethanol/H2O alone
  expression of Cx43 protein: increase expression of Cx43 protein
Male Sprague-Dawley rats; 75 mg/kg I.V. daily for 4 days before 30 min occlusion / 2 hours reperfusion
  mean myocardial salvage: 56%
Male Sprague-Dawley rats
  relationship of infarct size reduction / myocardial salvage to dose: increased linearly, and significantly, with dose
Male Sprague-Dawley rats; listed as Cardax™
  relationship of infarct size reduction / myocardial salvage to dose: linear relationship between dose and infarct size reduction
C-reactive protein (CRP)
  mean change in circulating CRP levels from baseline: −15.7%
Male ICR mice
  LPS-induced ALT elevation: substantially reduced
Male ICR mice; listed as disodium disuccinate astaxanthin derivative
  LPS-induced ALT elevation: reduced induced levels of ALT
Male ICR mice; 500 mg/kg oral gavage in emulsion, listed as disodium disuccinate astaxanthin derivative
  effect on plasma ALT in saline injected (sham-treated) animals: no effect on plasma ALT; also recorded: no effect on background levels of ALT
